Test [1] concerns the target T1, PxRDL2 (Plutella xylostella, UniProt C0L7I7).
T1 sequence (C0L7I7 30-520): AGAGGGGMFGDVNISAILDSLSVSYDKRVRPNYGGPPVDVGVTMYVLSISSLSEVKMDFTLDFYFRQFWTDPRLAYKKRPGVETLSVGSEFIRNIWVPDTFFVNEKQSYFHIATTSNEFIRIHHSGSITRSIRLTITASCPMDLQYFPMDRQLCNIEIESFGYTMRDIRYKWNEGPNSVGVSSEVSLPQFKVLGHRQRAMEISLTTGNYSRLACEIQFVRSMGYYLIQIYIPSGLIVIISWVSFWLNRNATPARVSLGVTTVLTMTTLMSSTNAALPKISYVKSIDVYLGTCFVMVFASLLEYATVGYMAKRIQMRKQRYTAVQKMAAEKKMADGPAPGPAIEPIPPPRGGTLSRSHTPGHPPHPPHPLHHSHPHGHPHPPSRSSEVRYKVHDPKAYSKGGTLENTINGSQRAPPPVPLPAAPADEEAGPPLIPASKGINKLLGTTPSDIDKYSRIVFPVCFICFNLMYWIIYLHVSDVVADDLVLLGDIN
Nature of the test: two-electrode voltage clamp, Xenopus oocytes. The format is cell-based.

Test [2] addresses T2, PxRDL1 (Plutella xylostella, UniProt C0L7I5).
T2 sequence (C0L7I5 26-485): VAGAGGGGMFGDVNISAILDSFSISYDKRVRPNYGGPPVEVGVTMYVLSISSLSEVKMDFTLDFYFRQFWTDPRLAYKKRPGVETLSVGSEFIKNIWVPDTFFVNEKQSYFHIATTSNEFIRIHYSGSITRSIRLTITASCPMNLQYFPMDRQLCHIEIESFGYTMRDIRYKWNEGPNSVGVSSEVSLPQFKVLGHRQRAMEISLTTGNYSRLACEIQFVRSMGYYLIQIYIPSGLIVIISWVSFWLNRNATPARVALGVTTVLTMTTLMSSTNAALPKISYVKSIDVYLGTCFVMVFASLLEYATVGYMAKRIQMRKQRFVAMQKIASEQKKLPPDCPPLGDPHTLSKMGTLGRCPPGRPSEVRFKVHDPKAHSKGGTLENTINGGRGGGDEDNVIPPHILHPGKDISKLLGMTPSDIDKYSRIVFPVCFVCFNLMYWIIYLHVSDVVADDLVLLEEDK
Nature of the test: cell-based. Also noted: species or system Xenopus laevis oocytes.

The target of test [3] is T1, PxRDL2. Nature of the test: two-electrode voltage clamp, Xenopus oocytes. The format is cell-based. The source holds these as a separate data set. In general terms: In two-electrode clamp one electrode senses voltage and the other passes current.
Test [4] concerns the target T2, PxRDL1. The test can be described thus: cell-based. Also noted: species or system Xenopus laevis oocytes. This is another data set of the same source.

Our source for the IC50 and EC50 values is paper doi:10.1101/2020.08.17.255026v1 (biorxiv, 2020).

Regarding `N#Cc1nn(-c2c(Cl)cc(C(F)(F)F)cc2Cl)c(N)c1[S+]([O-])C(F)(F)F` (stereo not shown) [fipronil], the IC50 at PxRDL2 [1] came out at 5.23 µM; against PxRDL1 [2], 0.13 ± 0.01 µM.
As for `NCCCC(=O)O` [GABA], the EC50 was 153 µM on PxRDL2 [3] and 20.8 ± 5.99 µM on PxRDL1 [4].

The IC50 is the midpoint of a concentration-inhibition curve. Read a low IC50 as inhibition by little substance. As usually defined, the EC50 is the concentration at which the effect is half-maximal.
